According to patent publication US20060178311A1, “Control of lactation” (Hannah Research Institute, priority 2003, published 2006):
Ends that are not written are not given here.

System: mammary acini from tissue of lactating mice
Assay: Mammary acini culture bioassay: secretion of [3H]leucine-labelled protein
Type: cell-based, mouse
Conditions: 0.01-10.0 μM, singly or in combination, 2 hours
Description: Mammary cells were prepared from tissue of lactating mice by collagenase digestion according to the method of K Hendry, K Simpson, K Nicholas & C Wilde. Journal of Molecular Endocrinology 21: 169-177 (1998). The resultant suspension of mammary acini consisted predominantly of groups of 50-200 cells, and was cultured in medium (Medium 199/Ham's F12: 50:50 v/v) containing insulin (5 μg/ml), hydrocortisone (0.1 μg/ml) and prolactin (1 μg/ml). Culture density was 1.5×10^6 cells/ml, and cells were maintained at 37° C. in an atmosphere of 5% CO2 in air. Protein synthesis and secretion were measured by continuous labelling with L-[4.5-3H]leucine ([…]; 10-20 μCi/ml) for 2 hours in the presence or absence of milk fractions (at concentrations of 0.2-4.0 μg/ml) or synthetic peptides (0.01-10 μM). […] Radiolabel incorporation was measured by precipitation with trichloroacetic acid (final concentration 10% w/v). […]
The amount of radiolabelled protein secreted by acini in the presence of milk extracts or synthetic peptides was expressed as a percentage of that produced by the cells to which no milk fraction or peptide was added. […]
Protein secretion was measured in mammary acini cultures in the presence and absence of synthetic peptides. […]

Sequence	effect of synthetic peptides on protein secretion
RPKHPIKHQG [Peptide A]	inhibitory action
AVAVSQEAN (also: C-terminal cysteine) [Peptide B, nine amino acid synthetic peptide]	stimulatory effect
